Results on one compound are retold here after patent publication US8492429B2, “Combination of IAP inhibitors and FLT3 inhibitors” (Novartis AG, priority 2006, dated 2013).

For this assay, the system named is Ba/F3-FLT3-ITD cells. Nature of the assay: Proliferation of cells cultured in the presence and absence of WEHI (IL-3). The class given is cell-based, murine. The following applies: WEHI as source of IL-3.

Take `CNC(C)C(=O)NC(C(=O)N1CCC2CCN(CCc3ccccc3)CC21)C1CCCCC1` (stereo not shown) [LBW242]: the “Inhibition of cellular proliferation in the presence and absence of IL-3” value is listed as “inhibits proliferation of Ba/F3-FLT3-ITD cells in both the absence, as well as the presence of IL-3”.
